Test [1] deals with parental ovarian cancer lines and isogenic SKOV3 lines. The test is described as follows: Viability with MTHFD2 inhibitor and uridine supplementation. Conditions: UQCR11-null parental and SKOV3 shUQCR11 cells compared with UQCR11-intact cells. It counts as cell-based. The procedure: FIG. 15 Investigating metabolic consequence of Complex III impairment and activity of paralogous pathways other than oxidative MTHFD2. (a) Effect of MTHFD2 inhibitor ([…]) and uridine (50 μM) supplementation on viability of parental ovarian cancer lines that are UQCR11—intact (SKOV3) or UQCR11-null (HeyA8, OVCAR8, CAOV3). Data are representative of two independent experiments and presented as mean±s.d. (n=6). Data analyzed with one-way ANOVA with Tukey's correction for multiple comparisons. (b) Effect of MTHFD2 inhibitor and uridine supplementation on viability of isogenic SKOV3 lines expressing shScramble or shUQCR11. […] Data analyzed with one-way ANOVA with Tukey's correction for multiple comparisons. […] (n=6) and analyzed using two-tailed Student's t-test. (d) mRNA expression of NNT, IDH2, IDH3A measured via qRT-PCR after knocking down with shNNT, shIDH2, and shIDH3A, relative to scramble shRNA (shScr), verifying knockdown efficiency in SKOV3 and OVCAR8 cell-lines. […] Data analyzed using unpaired two-tailed Student's t-test. […] Data are analyzed using ordinary one-way ANOVA with multiple comparisons. […] Loss of viability calculated by comparing respective viability in vehicle control-treated cells to MTHFD2 inhibitor-treated cells. […] (n=6) and analyzed using ordinary one-way ANOVA with Dunnett's correction for multiple comparisons. Error bars are calculated using propagation of error principles.

Test [2] has as its system SKOV3 cells expressing shScramble or shUQCR11. The test is described as follows: Viability of isogenic SKOV3 lines expressing shScramble or shUQCR11 treated with MTHFD2 inhibitor. The settings on record: SKOV3 cells with UQCR11 knocked down vs shScramble. It counts as cell-based. The source says:
FIG. 2 Multi-objective metabolic flux analysis identifies MTHFD2 as a collateral lethal target in UQCR11-null ovarian cancers with in vitro, clinical and pan-cancer implications. a, Workflow elucidating multi-objective flux analysis algorithm comparing flux distributions of cancers with and without deletions for identification of collateral lethal pathways. b, Multi-objective metabolic Pareto frontier and metabolic fluxes of MTHFD1, MTHFD2, RNA and DNA syntheses in UQCR11-null and -intact models. Radar plots represent Pareto-optimal flux distributions from maximal biomass to maximal ATP maintenance (counterclockwise). c, mRNA expression of UQCR11 and MTHFD2 in parental ovarian cancer cell lines. Data presented as mean±s.d. (n=6), analysed using two-tailed Student's t-test. d, Protein expression of MTHFD2 and UQCR11. Representative immunoblots with β-actin as loading control. e, Cell viability after dox-induced shMTHFD2 knockdown. […] (n=3), analysed using two-way analysis of variance (ANOVA) with Dunn's correction. f, Viability of parental ovarian cancer lines treated with MTHFD2 inhibitor. […] Data analysed pairwise by log-rank test. k, Overall survival of patients with UCEC and low UQCR11 (bottom quartile) expression and high (top quartile) expression of MTHFD2 compared with patients with low UQCR11 and MTHFD2 (bottom quartile) expression. Data analysed by log-rank test. […]

For the compound `Cc1c(N2CCN(C)[C@@H](C)C2)ccc2c3c(c(=O)oc12)CN(C(=O)c1ccc(NS(C)(=O)=O)c(OC(F)(F)F)c1)CC3` [DS18561882], the proliferation result in test [1] is recorded as “suppressed proliferation”. Further, the GISO concentrations result in test [2] is on record as “significantly reduced”.

Values taken from patent US20260018245A1, “SYSTEMS AND METHODS FOR IDENTIFYING AND TARGETING COLLATERAL LETHAL GENES” (The Regents of the University of Michigan, priority 2022, published 2026).
